From US20260166016A1, “GPR139 RECEPTOR AGONIST, PREPARATION METHOD THEREFOR, AND APPLICATION THEREOF” (NEUBO APPTECH CO., LTD., priority 2022, published 2026)

Columns and labels:
[1] = test system: acutely restrained mice; assay: Pentobarbital sodium sleep test in mice under acute restraint stress; format: in vivo, mouse; details: male C57BL/6J mice; gavage of 0.1, 0.5, 2.5 mg/mL solutions at 0.1 mL/10 g; 30 minutes later acute restraint for 3 hours; pentobarbital sodium 40 mg/kg i.p.; dose-dependent; FIG. 2
Source text: Mouse: Male C57BL/6J; 8 weeks old; Weight: 20-25 g; Quantity: 31 pieces
Group 1, acute restraint sleeping placebo group, 7 mice, fed with regular care.
Group 2, acute restraint sleeping+low-dose of compound NRB181 group, 8 mice. The mice were fasted and deprived of water during the acute restraint period, and were kept normally at other times.
Group 3, acute restraint sleeping+moderate-dose of compound NRB181 group, 8 mice. The mice were fasted and deprived of water during the acute restraint period, and were kept normally at other times.
Group 4, acute restraint sleeping+high-dose of compound NRB181 group, 8 mice. The mice were fasted and deprived of water during the acute restraint period, and were kept normally at other times.
19.3.1 Preparation of placebo one day before the experiment: 0.5% CMC sodium+1% Tween80+saline.
On the day before the experiment, a high-dose solution of compound NRB181 was prepared: 6 mg of NRB181 was weighed and dissolved in 2.4 mL of placebo to prepare a 2.5 mg/mL solution of NRB181. Sonicated for 10 minutes and stored at 4° C. for later use.
The day before the experiment, a moderate-dose solution of compound NRB181 was prepared: […] of the above high-dose solution was taken and added to a 2 mL placebo centrifuge tube, mixed well, a 0.5 mg/mL NRB181 solution was prepared, sonicated for 10 minutes, and stored at 4° C. for later use. […]

[2] = test system: metabolic enzymes of pentobarbital sodium; assay: LC-MS detection of pentobarbital sodium content in anesthetized mice (pilot experiment); format: in vivo, mouse; details: pentobarbital sodium content in mice by LC-MS, placebo vs compound
Source text: In addition, to determine whether compound NRB181 has an effect on the metabolic enzymes of pentobarbital sodium, we used LC-MS method to detect the pentobarbital sodium content in mice anesthetized with pentobarbital sodium under placebo and compound action in the pilot experiment.

[3] = test system: LPS induced mouse depression model; assay: LPS induced mouse depression model, body weight; format: in vivo; details: male CD1 (ICR) mice; gavage 2.5 mg/mL at 0.1 mL/10 g twice daily Day 1-4; LPS i.p. Day 4; weighed Day 5; FIG. 4
Source text: Mice: Male Crl: CD1 (ICR) mice; 10-14 weeks old; Weight: 35-40 g; Quantity: 40 pieces
Group 1, placebo+saline group: 10 mice; divided into 2 cages, 5 mice per cage.
Group 2, placebo+lipopolysaccharide (LPS) group: 10 mice; divided into 2 cages, 5 mice per cage.
Group 3, compound NRB181+saline group: 10 mice; divided into 2 cages, 5 mice per cage.
Group 4, compound NRB181+lipopolysaccharide (LPS) group: 10 mice; divided into 2 cages, 5 mice per cage.
21.3.1 Preparation of placebo before experiment: 0.5% CMC sodium+1% Tween80+saline. In a clean bench, 4 tubes of 40 mL placebo were prepared using pyrogen-free centrifuge tubes and ultrapure water, totaling 160 mL, ensuring the absence of endotoxins (LPS). Sterile and endotoxin free centrifuge tubes were used to divide […] of placebo into 4 mL/tube, for a total of 30 tubes, and stored at 4° C. for future use.
LPS with a purity of >98% was required 3.2 mg of LPS was accurately weighed and dissolved in 40 mL of placebo to prepare a sterile solution of 0.08 mg/mL. […]
21.3.4 On the first day of the experiment at 8:00 am, four groups of mice were randomly divided into groups, and the weight of each mouse was recorded before being placed back in their respective cages. […]
21.3.14 On the Day 5 of the experiment at 9:00 am, each group of mice was weighed and recorded, and then were returned to their home cages.

Q: For C[C@H](NC(=O)CNC(=O)c1cc(Cl)ccn1)c1c(F)cccc1F [NRB181], which “sleep time of pentobarbital sodium anesthetized mice” value [1] is on record?
A: significantly increased

Q: What about the “effect on the metabolic enzymes of pentobarbital sodium” value [2] of the same molecule?
A: no effect

Q: What about the “weight loss (body weight changes)” value [3] of the same molecule?
A: significantly alleviate weight loss
